In patent US11332485B2, “Penicillin-binding protein inhibitors” (priority 2017, dated 2022) one finds MIC data, which are given here for 17 compounds.

Like-named read-outs stand apart in the source and are kept apart here.

One test has as its system E. coli DH5α/pLBII. Kind of test: Broth microdilution MIC assay, empty vector control strain. In kind it is cell-based. To be noted: Escherichia coli, read-out: E. coli DH5α/pLBII Microbiological Activity (MIC). Here is the method: (§1) To determine the ability of test compounds to potentiate the inhibition of the growth of bacterial strains, classic cell based broth microdilution MIC assays were employed. MIC assays are performed according to CLSI methods except where otherwise noted (CLSI, 2011 and CLSI, 2009). The reference strain S. aureus ATCC 29213 and the hyper-permeable E. coli 901C were used to determine the ability of the PBP compounds to inhibit bacterial growth. Briefly, cryo-preserved bacterial cultures of clinical strains are streaked for isolation on appropriate agar medium, in this case Mueller Hinton II agar. Following incubation to allow formation of colonies these plates are sealed with parafilm and stored refrigerated for up to two weeks. For preparation of assay inocula and to ensure low variability, at least 5 colonies are picked from the agar plates with an inoculating loop and aseptically transferred to a culture tube containing 3 mL of Mueller-Hinton Broth (supplemented with divalent cations to required levels based on Manufacturers' certification). The broth culture is grown for 3-5 hours at 37° C. with shaking at 200 rpm. Meanwhile, 2-fold serial dilutions of test compounds are conducted in a 96 well plate with a final volume of 75 μL per well at 2-fold the final desired concentration. After the dilution plates are set up the growing cultures are then diluted in a cuvette containing MH II broth and the optical density is measured at 600 nm. Inocula are diluted such that 75 μL of this culture in Mueller-Hinton Broth results in a starting bacterial concentration of 5×10^5 CFU/mL when added to the dilution plates. The plates are incubated 16-20 hours at 37° C. The MIC is read visually as the lowest concentration well with no bacterial growth.
(§2) To determine if test compounds were affected by CTX-M15, the most abundant extended spectrum β-lactamase in clinical settings worldwide, the inhibition of the growth of an engineered strain of Escherichia coli harboring CTX-M15 was tested. This strain was constructed by cloning the gene encoding CTX-M15 into the NdeI and BamHI restriction endonuclease sites of plasmid pLBII, placing the gene(s) under the control of the Lac promoter. The constructed expression plasmid for CTX-M15 was used to transform competent E. coli DH5a cells to make the engineered strain, including an empty pLBII vector control strain. The classic cell based broth microdilution MIC assay was employed as described above with the addition of control antibiotics, known to be degraded by β-lactamases (Ceftazidime, piperacillin and piperacillin+tazobactam).
(Broth dilution looks for growth in wells or tubes with falling amounts of substance.)

In test [1] the test system is E. coli DH5α/pLBII-CTX-M15. The experiment in a line: Broth microdilution MIC assay, engineered strain producing CTX-M15. The class given is cell-based, Escherichia coli. The settings on record: Escherichia coli, read-out: E. coli DH5α/pLBII-CTX-M15 Microbiological Activity (MIC). Here is the method: as §1, §2
The test system of the next test is S. aureus ATCC 29213. Kind of test: Broth microdilution MIC assay. The class given is cell-based. The settings on record: Staphylococcus aureus. Here is the method:
as §1

The test system of test [2] is hyper-permeable E. coli 901C. The experiment in a line: Broth microdilution MIC assay. The settings on record: Escherichia coli, read-out: E. coli 901C MIC. The class given is cell-based. Here is the method:
as §1

The mark [3] stands for this setting: ATCC29213, broth microdilution, 16-20 hours at 37° C., read-out: S. aureus 29213 MIC.

On to `CCCN1CCN(C(=O)NC(C(=O)N[C@H]2Cc3cccc(C(=O)O)c3OB2O)c2csc(NC(=O)OCc3ccccc3)n2)C(=O)C1=O` (stereo partly drawn) [Example 56, (3R)-3-(2-(2-(((benzyloxy)carbonyl)amino)thiazol-4-yl)-2-(2,3-dioxo-4-propylpiperazine-1-carboxamido)acetamido)-2-hydroxy-3,4-dihydro-2H-benzo[e][1,2]oxaborinine-8-carboxylic acid], for which the MIC in the test on E. coli DH5α/pLBII was > 512 µg/mL; in test [1] it was > 512 µg/mL; with S. aureus ATCC 29213 (setting [3]), 64 to 128 µg/mL; in test [2] it was < 64 µg/mL.
`Nc1nc([C@H](N)C(=O)N[C@H]2Cc3cccc(C(=O)O)c3OB2O)cs1` [Example 9, (R)-3-((S)-2-amino-2-(2-aminothiazol-4-yl)acetamido)-2-hydroxy-3,4-dihydro-2H-benzo[e][1,2]oxaborinine-8-carboxylic acid]: the MIC with E. coli DH5α/pLBII was 128 to 256 µg/mL; in test [1] it was 128 to 256 µg/mL; in the test with S. aureus ATCC 29213 (setting [3]), > 128 µg/mL; in test [2], > 128 µg/mL.
Consider `N[C@H](Cc1ccccc1)C(=O)N[C@H]1Cc2cccc(C(=O)O)c2OB1O` [Example 1, (R)-3-((R)-2-amino-3-phenylpropanamido)-2-hydroxy-3,4-dihydro-2H-benzo[e][1,2]oxaborinine-8-carboxylic acid], for which the MIC with E. coli DH5α/pLBII is > 512 µg/mL; in test [1] it was > 512 µg/mL; with S. aureus ATCC 29213 (setting [3]) it was > 128 µg/mL; in test [2], > 128 µg/mL.
With `Nc1nc(C(NC(=O)c2nccs2)C(=O)N[C@H]2Cc3cccc(C(=O)O)c3OB2O)cs1` (stereo partly drawn) [Example 15, (3R)-3-(2-(2-aminothiazol-4-yl)-2-(thiazole-2-carboxamido)acetamido)-2-hydroxy-3,4-dihydro-2H-benzo[e][1,2]oxaborinine-8-carboxylic acid], the MIC in the test with E. coli DH5α/pLBII was 128 to 256 µg/mL; in test [1] it was 128 to 256 µg/mL; with S. aureus ATCC 29213 (setting [3]), < 64 µg/mL; in test [2], < 64 µg/mL.
For `Nc1nc([C@@H](N)C(=O)N[C@H]2Cc3cccc(C(=O)O)c3OB2O)cs1` [Example 8, (R)-3-((R)-2-amino-2-(2-aminothiazol-4-yl)acetamido)-2-hydroxy-3,4-dihydro-2H-benzo[e][1,2]oxaborinine-8-carboxylic acid], the MIC in the test on E. coli DH5α/pLBII was > 512 µg/mL; in test [1], > 512 µg/mL; with S. aureus ATCC 29213 (setting [3]), > 128 µg/mL; in test [2], > 128 µg/mL.
`CN(C)S(=O)(=O)NC(C(=O)N[C@H]1Cc2cccc(C(=O)O)c2OB1O)c1csc(N)n1` (stereo partly drawn) [Example 23, (3R)-3-(2-(2-aminothiazol-4-yl)-2-((N,N-dimethylsulfamoyl)amino)acetamido)-2-hydroxy-3,4-dihydro-2H-benzo[e][1,2]oxaborinine-8-carboxylic acid]: the MIC was 128 to 256 µg/mL in the test with E. coli DH5α/pLBII, 128 to 256 µg/mL in test [1], > 128 µg/mL with S. aureus ATCC 29213 (setting [3]) and < 64 µg/mL in test [2].
As for `N[C@@H](C(=O)N[C@H]1Cc2cccc(C(=O)O)c2OB1O)c1ccccc1` [Example 2, (R)-3-((R)-2-amino-2-phenylacetamido)-2-hydroxy-3,4-dihydro-2H-benzo[e][1,2]oxaborinine-8-carboxylic acid], the MIC in the test with E. coli DH5α/pLBII was > 512 µg/mL; in test [1], > 512 µg/mL; with S. aureus ATCC 29213 (setting [3]), > 128 µg/mL; in test [2], > 128 µg/mL.
Regarding `CCCN1CCN(C(=O)NC(C(=O)N[C@H]2Cc3cccc(C(=O)O)c3OB2O)c2csc(N)n2)C(=O)C1=O` (stereo partly drawn) [Example 51, (3R)-3-(2-(2-aminothiazol-4-yl)-2-(2,3-dioxo-4-propylpiperazine-1-carboxamido)acetamido)-2-hydroxy-3,4-dihydro-2H-benzo[e][1,2]oxaborinine-8-carboxylic acid], the MIC is 8 to 16 µg/mL in the test with E. coli DH5α/pLBII, 8 to 16 µg/mL in test [1], 64 to 128 µg/mL in the test on S. aureus ATCC 29213 (setting [3]) and < 64 µg/mL in test [2].
In the case of `N[C@H](C(=O)N[C@H]1Cc2cccc(C(=O)O)c2OB1O)c1ccc(O)cc1` [Example 7, (R)-3-((S)-2-amino-2-(4-hydroxyphenyl)acetamido)-2-hydroxy-3,4-dihydro-2H-benzo[e][1,2]oxaborinine-8-carboxylic acid], the MIC with E. coli DH5α/pLBII was 128 to 256 µg/mL; in test [1], 128 to 256 µg/mL; in the test with S. aureus ATCC 29213 (setting [3]), 64 to 128 µg/mL; in test [2] it was > 128 µg/mL.
As for `COc1ccc(C(=O)NC(C(=O)N[C@H]2Cc3cccc(C(=O)O)c3OB2O)c2csc(N)n2)c(=O)[nH]1` (stereo partly drawn) [Example 46, (3R)-3-(2-(2-aminothiazol-4-yl)-2-(6-methoxy-2-oxo-1,2-dihydropyridine-3-carboxamido)acetamido)-2-hydroxy-3,4-dihydro-2H-benzo[e][1,2]oxaborinine-8-carboxylic acid], the MIC in the test on E. coli DH5α/pLBII is 128 to 256 µg/mL; in test [1], 128 to 256 µg/mL; in the test with S. aureus ATCC 29213 (setting [3]) it was > 128 µg/mL; in test [2], < 64 µg/mL.
Take `Nc1nc(C(NC(=O)N2CCOCC2)C(=O)N[C@H]2Cc3cccc(C(=O)O)c3OB2O)cs1` (stereo partly drawn) [Example 18, (3R)-3-(2-(2-aminothiazol-4-yl)-2-(morpholine-4-carboxamido)acetamido)-2-hydroxy-3,4-dihydro-2H-benzo[e][1,2]oxaborinine-8-carboxylic acid]: the MIC in the test with E. coli DH5α/pLBII is 128 to 256 µg/mL; in test [1], 128 to 256 µg/mL; in the test with S. aureus ATCC 29213 (setting [3]) it was > 128 µg/mL; in test [2] it was < 64 µg/mL.
For `COc1cc(C(=O)NC(C(=O)N[C@H]2Cc3cccc(C(=O)O)c3OB2O)c2csc(N)n2)ccn1` (stereo partly drawn) [Example 41, (3R)-3-(2-(2-aminothiazol-4-yl)-2-(2-methoxyisonicotinamido)acetamido)-2-hydroxy-3,4-dihydro-2H-benzo[e][1,2]oxaborinine-8-carboxylic acid], the MIC in the test on E. coli DH5α/pLBII is > 512 µg/mL; in test [1], > 512 µg/mL; in the test on S. aureus ATCC 29213 (setting [3]), 64 to 128 µg/mL; in test [2] it was < 64 µg/mL.
On to `Nc1nc(C(NS(=O)(=O)N2CCOCC2)C(=O)N[C@H]2Cc3cccc(C(=O)O)c3OB2O)cs1` (stereo partly drawn) [Example 24, (3R)-3-(2-(2-aminothiazol-4-yl)-2-(morpholine-4-sulfonamido)acetamido)-2-hydroxy-3,4-dihydro-2H-benzo[e][1,2]oxaborinine-8-carboxylic acid], for which the MIC was 128 to 256 µg/mL with E. coli DH5α/pLBII, 128 to 256 µg/mL in test [1], > 128 µg/mL with S. aureus ATCC 29213 (setting [3]) and < 64 µg/mL in test [2].
On to `COc1ccc([C@@H](N)C(=O)N[C@H]2Cc3cccc(C(=O)O)c3OB2O)cc1` [Example 4, (R)-3-((R)-2-amino-2-(4-methoxyphenyl)acetamido)-2-hydroxy-3,4-dihydro-2H-benzo[e][1,2]oxaborinine-8-carboxylic acid], for which the MIC with E. coli DH5α/pLBII was > 512 µg/mL; in test [1] it was > 512 µg/mL; in the test with S. aureus ATCC 29213 (setting [3]) it was > 128 µg/mL; in test [2] it was > 128 µg/mL.
For the compound `Nc1nc(C(NC(=O)C2CCCC(=O)N2)C(=O)N[C@H]2Cc3cccc(C(=O)O)c3OB2O)cs1` (stereo partly drawn) [Example 68, (3R)-3-(2-(2-aminothiazol-4-yl)-2-(6-oxopiperidine-2-carboxamido)acetamido)-2-hydroxy-3,4-dihydro-2H-benzo[e][1,2]oxaborinine-8-carboxylic acid], the MIC is 128 to 256 µg/mL with E. coli DH5α/pLBII, 128 to 256 µg/mL in test [1], > 128 µg/mL in the test on S. aureus ATCC 29213 (setting [3]) and < 64 µg/mL in test [2].
As to `Nc1nc(C(NC(=O)N2CCCN(O)S2(=O)=O)C(=O)N[C@H]2Cc3cccc(C(=O)O)c3OB2O)cs1` (stereo partly drawn) [Example 77, (3R)-3-(2-(2-aminothiazol-4-yl)-2-(6-hydroxy-1,1-dioxido-1,2,6-thiadiazinane-2-carboxamido)acetamido)-2-hydroxy-3,4-dihydro-2H-benzo[e][1,2]oxaborinine-8-carboxylic acid], the MIC was 32 to 64 µg/mL in the test on E. coli DH5α/pLBII; 32 to 64 µg/mL in test [1]; > 128 µg/mL with S. aureus ATCC 29213 (ATCC29213, read-out: S. aureus 29213 MIC); < 64 µg/mL in test [2].
In the case of `Nc1nc(C(NC(=O)N2CCN(CC(F)F)C(=O)C2=O)C(=O)N[C@H]2Cc3cccc(C(=O)O)c3OB2O)cs1` (stereo partly drawn) [Example 69, (3R)-3-(2-(2-aminothiazol-4-yl)-2-(4-(2,2-difluoroethyl)-2,3-dioxopiperazine-1-carboxamido)acetamido)-2-hydroxy-3,4-dihydro-2H-benzo[e][1,2]oxaborinine-8-carboxylic acid], the MIC was 8 to 16 µg/mL in the test on E. coli DH5α/pLBII, 8 to 16 µg/mL in test [1], 64 to 128 µg/mL in the test with S. aureus ATCC 29213 (setting [3]) and < 64 µg/mL in test [2].
